Measured values taken from US20210255193A1, “LYSINE REACTIVE PROBES AND USES THEREOF” (The Scripps Research Institute, priority 2017, published 2021).

Legend:
Assay in all cases: competitive isoTOP-ABPP
Type in all cases: binding
[1] = biological target: T1, NAA25 N-alpha-acetyltransferase 25, NatB auxiliary subunit (Homo sapiens, UniProt Q14CX7); settings: 50 uM, 231 sol, in vitro; for R value (DMSO/fragment) for probe 1 labeling: Q14CX7_K575
T1 construct: isoTOP-ABPP experiments performed in cell lysates (in vitro); endogenous in cells; host or cells: soluble proteome of human cancer cell lines (MDA-MB-231; Ramos and Jurkat also prepared)
In short: (§1)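 Readout: isotopic light/heavy MS1 peak-area ratio (R, DMSO heavy over compound light), median across peptides sharing a modified lysine. Lysate received fragment (activated esters 50 μM, guanidinylating agents 100 μM final) or DMSO, then 0.1 mM STP-alkyne probe for 1 h at ambient temperature.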

[2] = biological target: T2, MAP2K3 Dual specificity mitogen-activated protein kinase (Homo sapiens, UniProt P46734); settings: 50 uM, 231 sol, in vitro; for R value (DMSO/fragment) for probe 1 labeling: P46734_K93
T2 construct: isoTOP-ABPP experiments performed in cell lysates (in vitro); endogenous in cells; host or cells: soluble proteome of human cancer cell lines (MDA-MB-231; Ramos and Jurkat also prepared)
T2 sequence (P46734 1-347): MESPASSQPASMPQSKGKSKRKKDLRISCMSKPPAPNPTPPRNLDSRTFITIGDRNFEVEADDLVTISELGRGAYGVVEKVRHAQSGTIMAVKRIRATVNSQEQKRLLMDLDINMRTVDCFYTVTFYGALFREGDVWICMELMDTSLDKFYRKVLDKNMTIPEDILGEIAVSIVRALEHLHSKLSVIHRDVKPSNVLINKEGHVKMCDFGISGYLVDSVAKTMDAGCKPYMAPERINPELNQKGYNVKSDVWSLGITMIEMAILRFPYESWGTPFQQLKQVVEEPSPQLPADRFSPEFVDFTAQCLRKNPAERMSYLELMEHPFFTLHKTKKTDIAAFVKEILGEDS
In short: as §1

[3] = biological target: T3, PFKM 6-phosphofructokinase, muscle type (Homo sapiens, UniProt P08237); settings: 50 uM, 231 sol, in vitro; for R value (DMSO/fragment) for probe 1 labeling: P08237_K678
T3 construct: isoTOP-ABPP experiments performed in cell lysates (in vitro); endogenous in cells; host or cells: MDA-MB-231 soluble lysate
T3 sequence (P08237 1-780): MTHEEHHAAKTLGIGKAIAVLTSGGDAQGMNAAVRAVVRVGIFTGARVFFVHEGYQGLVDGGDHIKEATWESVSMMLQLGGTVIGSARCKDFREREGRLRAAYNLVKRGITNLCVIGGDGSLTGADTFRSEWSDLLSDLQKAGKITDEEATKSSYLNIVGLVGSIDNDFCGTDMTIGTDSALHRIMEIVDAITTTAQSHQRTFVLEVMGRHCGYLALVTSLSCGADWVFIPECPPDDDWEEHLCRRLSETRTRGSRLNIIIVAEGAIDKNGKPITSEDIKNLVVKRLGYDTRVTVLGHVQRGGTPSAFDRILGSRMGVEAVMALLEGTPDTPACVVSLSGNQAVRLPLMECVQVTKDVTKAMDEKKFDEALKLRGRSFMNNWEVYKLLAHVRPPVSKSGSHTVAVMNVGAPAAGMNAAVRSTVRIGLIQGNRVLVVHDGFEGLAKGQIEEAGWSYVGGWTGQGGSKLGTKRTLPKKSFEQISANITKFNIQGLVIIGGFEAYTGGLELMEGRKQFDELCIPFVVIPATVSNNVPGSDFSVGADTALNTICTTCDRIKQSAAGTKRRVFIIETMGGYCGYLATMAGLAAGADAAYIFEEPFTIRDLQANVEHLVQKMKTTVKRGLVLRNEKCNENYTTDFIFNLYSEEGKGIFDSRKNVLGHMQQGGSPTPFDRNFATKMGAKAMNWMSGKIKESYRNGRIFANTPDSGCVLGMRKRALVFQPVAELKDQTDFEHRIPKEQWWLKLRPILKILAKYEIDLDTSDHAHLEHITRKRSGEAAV
In short: as §1

[4] = biological target: T4, G6PD Glucose-6-phosphate 1-dehydrogenase (Homo sapiens, UniProt P11413); settings: 50 uM, 231 sol, in vitro; for R value (DMSO/fragment) for probe 1 labeling: P11413_K171
T4 construct: isoTOP-ABPP experiments performed in cell lysates (in vitro); endogenous in cells; host or cells: MDA-MB-231 soluble lysate
In short: as §1

T1 sequence (Q14CX7 whole entry, the tested form may be a part): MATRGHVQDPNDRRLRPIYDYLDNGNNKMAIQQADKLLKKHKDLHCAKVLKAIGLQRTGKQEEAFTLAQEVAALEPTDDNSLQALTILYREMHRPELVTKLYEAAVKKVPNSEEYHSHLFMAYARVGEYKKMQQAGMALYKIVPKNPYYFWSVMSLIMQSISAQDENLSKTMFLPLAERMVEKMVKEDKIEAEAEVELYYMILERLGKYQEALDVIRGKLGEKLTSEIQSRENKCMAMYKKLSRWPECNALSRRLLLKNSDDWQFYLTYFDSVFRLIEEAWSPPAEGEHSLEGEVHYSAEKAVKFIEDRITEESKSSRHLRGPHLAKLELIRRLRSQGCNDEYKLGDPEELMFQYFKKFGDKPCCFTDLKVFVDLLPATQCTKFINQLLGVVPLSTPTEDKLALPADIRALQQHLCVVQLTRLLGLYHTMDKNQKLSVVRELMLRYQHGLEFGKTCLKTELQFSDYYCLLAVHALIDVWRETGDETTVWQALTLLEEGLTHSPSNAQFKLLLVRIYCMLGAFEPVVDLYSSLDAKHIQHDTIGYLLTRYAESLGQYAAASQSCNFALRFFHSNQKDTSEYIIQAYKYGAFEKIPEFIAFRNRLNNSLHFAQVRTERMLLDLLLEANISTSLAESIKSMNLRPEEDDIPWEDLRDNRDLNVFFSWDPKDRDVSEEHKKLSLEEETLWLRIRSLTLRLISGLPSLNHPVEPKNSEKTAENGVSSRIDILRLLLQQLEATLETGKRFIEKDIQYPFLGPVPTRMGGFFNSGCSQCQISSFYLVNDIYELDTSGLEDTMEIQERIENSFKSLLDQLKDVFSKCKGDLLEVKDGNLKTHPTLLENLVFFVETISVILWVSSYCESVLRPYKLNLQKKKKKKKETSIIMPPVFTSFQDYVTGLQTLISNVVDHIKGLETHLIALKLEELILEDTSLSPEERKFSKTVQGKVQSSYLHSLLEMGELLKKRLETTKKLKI
T4 sequence (P11413 whole entry, the tested form may be a part): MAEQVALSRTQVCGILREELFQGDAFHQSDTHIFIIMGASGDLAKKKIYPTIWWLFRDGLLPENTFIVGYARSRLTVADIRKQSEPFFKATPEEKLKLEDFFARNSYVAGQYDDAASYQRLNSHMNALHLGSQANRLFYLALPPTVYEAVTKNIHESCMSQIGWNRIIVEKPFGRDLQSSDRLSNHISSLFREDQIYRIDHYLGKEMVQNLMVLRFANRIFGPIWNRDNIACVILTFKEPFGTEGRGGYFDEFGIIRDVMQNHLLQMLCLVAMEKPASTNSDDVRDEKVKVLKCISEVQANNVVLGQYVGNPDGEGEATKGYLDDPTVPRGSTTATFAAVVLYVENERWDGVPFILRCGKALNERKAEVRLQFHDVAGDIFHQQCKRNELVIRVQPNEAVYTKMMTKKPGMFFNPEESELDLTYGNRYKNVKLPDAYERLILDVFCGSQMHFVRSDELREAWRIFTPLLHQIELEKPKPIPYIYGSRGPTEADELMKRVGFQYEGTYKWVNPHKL

R value (DMSO/fragment) for probe 1 labeling [1] | R value (DMSO/fragment) for probe 1 labeling [2] | R value (DMSO/fragment) for probe 1 labeling [3] | R value (DMSO/fragment) for probe 1 labeling [4] | isoTOP-ABPP reactivity ratio at lysine Q14CX7_K575 [1] | isoTOP-ABPP reactivity ratio at lysine P08237_K678 [3] | isoTOP-ABPP reactivity ratio at lysine P11413_K171 [4] | Compound | isoTOP-ABPP reactivity ratio at lysine P46734_K93 [2]
1.0 | 0.9 | 1.0 | 0.9 | – | – | – | O=C(CCc1cn(-c2ccccc2)nc1-c1ccccc1)Oc1c(F)c(F)c(F)c(F)c1F [fragment 19, Pentafluorophenyl 3-(1,3-diphenyl-1H-pyrazol-4-yl)propanoate] | –
1.1 | 0.9 | 1.4 | 0.7 | – | – | – | O=C(Oc1c(F)c(F)c(F)c(F)c1F)C(c1ccccc1)c1ccccc1 [fragment 20, Pentafluorophenyl 2,2-diphenylacetate] | –
0.9 | 0.9 | 0.9 | 0.8 | – | – | – | O=C(Oc1c(F)c(F)c(F)c(F)c1F)c1cc(C(F)(F)F)cc(C(F)(F)F)c1 [fragment 21, Pentafluorophenyl 3,5-bis(trifluoromethyl)benzoate] | –
2.2 | 0.9 | 1.1 | 0.7 | – | – | – | Cn1cc(CC(=O)Oc2c(F)c(F)c(F)c(F)c2F)c2ccccc21 [fragment 22, Pentafluorophenyl 2-(1-methyl-1H-indol-3-yl)acetate] | –
– | 0.9 | 1.0 | 2.1 | – | – | – | COc1cc(CCC(=O)Oc2c(F)c(F)c(F)c(F)c2F)cc(OC)c1OC [fragment 23, Pentafluorophenyl 3-(3,4,5-trimethoxyphenyl)propanoate] | –
– | – | – | – | 1.1 | 1.1 | 0.9 | O=C(Oc1c(F)c(F)c(F)c(F)c1F)C1CCN(C(=O)OCc2ccccc2)CC1 [fragment 24, 1-Benzyl 4-(pentafluorophenyl) piperidine-1,4-dicarboxylate] | –
– | – | – | – | 0.9 | 1.3 | 0.8 | O=C(Oc1c(F)c(F)c(F)c(F)c1F)c1ccc2ccccc2n1 [fragment 25, Pentafluorophenyl quinoline-2-carboxylate] | –
– | – | – | – | 0.9 | 1.4 | 1.0 | O=C(CCc1coc2cc(F)ccc2c1=O)Oc1c(F)c(F)c(F)c(F)c1F [fragment 26, Pentafluorophenyl 3-(7-fluoro-4-oxo-4H-chromen-3-yl)propanoate] | 1.1
– | – | – | – | 1.4 | 2.6 | 0.9 | O=C(CN1C(=O)c2ccccc2C1=O)Oc1c(F)c(F)c(F)c(F)c1F [fragment 27, Pentafluorophenyl 2-(1,3-dioxoisoindolin-2-yl)acetate] | –
– | – | – | – | 0.8 | 1.3 | 0.9 | CCn1cc(C(=O)Oc2c(F)c(F)c(F)c(F)c2F)c(=O)c2ccc(C)nc21 [fragment 28, Pentafluorophenyl 1-ethyl-7-methyl-4-oxo-1,4-dihydro-1,8-naphthyridine-3-carboxylate] | –

Compound | R value (DMSO/fragment) for probe 1 labeling [1] | R value (DMSO/fragment) for probe 1 labeling [2] | R value (DMSO/fragment) for probe 1 labeling [3] | R value (DMSO/fragment) for probe 1 labeling [4] | isoTOP-ABPP reactivity ratio at lysine Q14CX7_K575 [1] | isoTOP-ABPP reactivity ratio at lysine P08237_K678 [3] | isoTOP-ABPP reactivity ratio at lysine P11413_K171 [4] | isoTOP-ABPP reactivity ratio at lysine P46734_K93 [2]
O=C(CCc1cn(-c2ccccc2)nc1-c1ccccc1)Oc1ccc([N+](=O)[O-])cc1[N+](=O)[O-] [fragment 29, 2,4-Dinitrophenyl 3-(1,3-diphenyl-1H-pyrazol-4-yl)propanoate] | – | – | – | – | 1.1 | 1.8 | 0.9 | 0.9
